Molecular target: T1, binding between ALS-related mutant SOD1 (Flag-SOD1 G93A) and Derlin-1 (Derlin-1-HA) (Homo sapiens, UniProt P00441+Q9BUN8, G94A)
T1 construct: expressed in transfected cells; host or cells: HEK293A
Assay: Cell-based co-immunoprecipitation assay of mutant SOD1 (G93A)-Derlin-1 binding
Design: key to Activity value (score): a compound exhibiting no inhibitory activity is set at 0; a compound exhibiting inhibitory activity is set at 1; a compound exhibiting significant inhibitory activity is set at 2; a compound having higher inhibitory activity than the compound of Example 1 is set at 3
Description: As cells, human embryonic kidney-derived, Human Embryonic Kidney 293A (HEK293A) cells were used. The cells were cultured in High Glucose Dulbecco's modified Eagle's medium (DMEM: 4.5 mg/ml glucose, Sigma) supplemented with complement-inactivated 10% fetal bovine serum (FBS, Vitromex) and 100 units/mL Penicillin G (Meiji), which was placed in an incubator set at conditions of 37° C. and 5% CO2.
Transfection into the HEK293A cells was carried out using PEI-Max (Polyscience) at a ratio of 3 μL of PEI-Max to 1 μg of plasmid. DMEM was mixed with PEI-Max, and the mixture was then left at rest for 5 minutes. Thereafter, the reaction mixture was added to the plasmid DNA dissolved in DMEM, and the thus obtained mixture was further left at rest for 15 minutes. After seeding, the culture was carried out for 12 to 24 hours, and the resultant was then added to a culture medium of cells, in which the medium had been exchanged with DMEM supplemented only with 10% FBS.
pcDNA3.0-Derlin-1-HA, pcDNA3.0-Flag-SOD1 G93A, and 123 types of other mutants.
In the lysis of HEK293A cells for use in a co-immunoprecipitation experiment, an IP lysis buffer (20 mM Tris-HCl (pH 7.5), 150 mM NaCl, 10 mM EDTA (pH 8.0), 1% Triton-X 100, 5 μg/mL leupeptin, and 1 mM phenylmethylsulfonyl fluoride) was used.
After the transfection on a 24-well plate, the cells were cultured for 12 hours or 24 hours, and the obtained cell culture was exchanged with 200 μL of medium. Thereafter, 1% DMSO or various types of compounds having each different concentration were added into the culture. Thirty-six hours or twenty-four hours later, the cells were incubated in the IP lysis buffer (300 μL/well) at 4° C. for 25 minutes, so that the cells were lysed. The cell lysate was centrifuged at 4° C. at 15000 rpm for 10 minutes, and a supernatant was then recovered. To this supernatant, Anti-Flag M2 affinity gel was added in a liquid amount of 20 μL, and they were allowed to react with each other by subjecting the obtained mixture to inversion mixing at 4° C. for 25 minutes. After completion of the reaction, a supernatant was removed, and the residue was washed twice with High salt wash buffer (1% Triton X 100, 500 mM NaCl, 20 mM Tris-HCl (pH 7.5), and 5 mM EGTA), and was then washed once with Low salt wash buffer (150 mM NaCl, 20 mM Tris-HCl (pH 7.5), and 5 mM EGTA). Finally, 50 μL of a 2×SDS sample buffer was added to the resultant, and the obtained mixture was then boiled at 98° C. for 3 minutes to obtain an SDS-PAGE sample. Regarding the lysate, a 2×SDS sample buffer was added in an amount equal to the supernatant, and the obtained mixture was then boiled at 98° C. for 3 minutes to obtain an SDS-PAGE sample.
After completion of SDS-PAGE, a protein was transferred from the gel into a polyvinylidene difluoride membrane (PVDF) ([…], Pall), and was then blocked with TBS-T (150 mM NaCl, 50 mM Tris-HCl (pH 8.0), and 0.05% Tween 20) supplemented with 5% skimmed milk at room temperature for 2 hours or more. Thereafter, a primary antibody diluted with TBS-T supplemented with 5% bovine serum albumin and 0.1% NaN3 was allowed to bind to each molecule on the PVDF membrane at 4° C. for 12 hours or more. After completion of the reaction, a secondary antibody (HRP-linked 2nd antibody) diluted with TBS-T supplemented with 5% skimmed milk was allowed to bind to the primary antibody at room temperature for 1 hour. Thereafter, the resultant was washed with TBS-T for 15 minutes, 3 or more times, and detection was then carried out using an enhanced chemiluminescence (ECL) system.
With regard to the compounds of the present invention (Example Compound 1 to Example Compound 47), whether or not the present compound can inhibit the binding between ALS-related mutant SOD1 and Derlin-1 in a cell by being added into a cell culture solution was examined according to a co-immunoprecipitation experiment. […]

T1 sequence (P00441 whole entry G94A, species assumed): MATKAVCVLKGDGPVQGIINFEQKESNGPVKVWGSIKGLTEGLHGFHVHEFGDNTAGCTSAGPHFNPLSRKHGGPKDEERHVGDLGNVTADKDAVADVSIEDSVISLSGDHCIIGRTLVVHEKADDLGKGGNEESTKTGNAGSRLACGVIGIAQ
T1 sequence (Q9BUN8 whole entry, species assumed, stated change not applied): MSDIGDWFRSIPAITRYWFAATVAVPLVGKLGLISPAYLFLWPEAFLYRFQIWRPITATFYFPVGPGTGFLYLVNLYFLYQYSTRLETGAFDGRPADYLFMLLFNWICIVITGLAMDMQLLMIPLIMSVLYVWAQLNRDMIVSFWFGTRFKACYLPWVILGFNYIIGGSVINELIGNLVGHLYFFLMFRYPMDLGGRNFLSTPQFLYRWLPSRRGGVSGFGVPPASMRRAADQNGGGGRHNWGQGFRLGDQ

SMILES: C=CCN(C(=O)c1sc2nc(-c3cccnc3)ccc2c1N)c1ccccc1 [Example 1, N-allyl-3-amino-N-phenyl-6-(3-pyridinyl)thieno[2,3-b]pyridine-2-carboxamide]
- binding between mutant SOD1 and Derlin-1 (co-precipitated Derlin-1, IB:HA band) (5 μM, 10 μM and 20 μM added to HEK293A cell culture, FIG. 1): the binding between mutant SOD1 and Derlin-1 was inhibited
- Activity value (score) (assay concentration 20 μM, HEK293A cells overexpressing Flag-SOD1 G93A and Derlin-1-HA): 2
